According to patent US10544143B2, “4-azaindole compounds” (BRISTOL-MYERS SQUIBB COMPANY, priority 2017, dated 2020):

Legend:
human TLR8 = human TLR8 (Homo sapiens (Human), UniProt Q9NR97); assay: TLR8 inhibition reporter assay (HEK-Blue SEAP); conditions: read-out: TLR8 IC50; HEK-Blue cells overexpressing human TLR8, SEAP reporter, R848 15.9 μM;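 further: SEAP driven by IFN-β minimal promoter carrying NF-κB and AP-1 sites, compounds dosed 0.05 nM to 50 µM for 22 h, inhibition scaled between agonist-plus-DMSO and reference-inhibitor wells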
human TLR7 = human TLR7 (Homo sapiens (Human), UniProt Q9NYK1); assay: TLR7 inhibition reporter assay (HEK-Blue SEAP); assay type: cell-based; conditions: HEK-Blue cells overexpressing human TLR7, SEAP reporter, gardiquimod 7.5 μM
Procedure: HEK-Blue™-cells (Invivogen) overexpressing human TLR7, TLR8 or TLR9 receptors were used for screening inhibitors of these receptors using an inducible SEAP (secreted embryonic alkaline phosphatase) reporter gene under the control of the IFN-β minimal promoter fused to five NF-κB and AP-1-binding sites. Briefly, cells are seeded into Greiner 384 well plates (15000 cells per well for TLR7, 20,000 for TLR8 and 25,000 for TLR9) and then treated with test compounds in DMSO to yield a final dose response concentration range of 0.05 nM-50 μM. After a 30 minute compound pre-treatment at room temperature, the cells are then stimulated with a TLR7 ligand (gardiquimod at a final concentration of 7.5 μM), TLR8 ligand (R848 at a final concentration of 15.9 μM) or TLR9 ligand (ODN2006 at a final concentration of 5 nM) to activate NF-κB and AP-1 which induce the production of SEAP. After a 22 hour incubation at 37° C., 5% CO2, SEAP levels are determined with the addition of HEK-Blue™ Detection reagent (Invivogen), a cell culture medium that allows for detection of SEAP, according to manufacturer's specifications.

human TLR9 = human TLR9 (Homo sapiens (Human), UniProt Q9NR96); assay: TLR9 inhibition reporter assay (HEK-Blue SEAP); conditions: read-out: TLR9 IC50; HEK-Blue cells overexpressing human TLR9, SEAP reporter, ODN2006 5 nM;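 further: SEAP driven by an IFN-β minimal promoter with NF-κB and AP-1 sites, read after 22 h, compounds dosed 0.05 nM–50 µM, inhibition scaled between agonist plus DMSO and reference-inhibitor wells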
human TLR9, sequence (Q9NR96 26-1032): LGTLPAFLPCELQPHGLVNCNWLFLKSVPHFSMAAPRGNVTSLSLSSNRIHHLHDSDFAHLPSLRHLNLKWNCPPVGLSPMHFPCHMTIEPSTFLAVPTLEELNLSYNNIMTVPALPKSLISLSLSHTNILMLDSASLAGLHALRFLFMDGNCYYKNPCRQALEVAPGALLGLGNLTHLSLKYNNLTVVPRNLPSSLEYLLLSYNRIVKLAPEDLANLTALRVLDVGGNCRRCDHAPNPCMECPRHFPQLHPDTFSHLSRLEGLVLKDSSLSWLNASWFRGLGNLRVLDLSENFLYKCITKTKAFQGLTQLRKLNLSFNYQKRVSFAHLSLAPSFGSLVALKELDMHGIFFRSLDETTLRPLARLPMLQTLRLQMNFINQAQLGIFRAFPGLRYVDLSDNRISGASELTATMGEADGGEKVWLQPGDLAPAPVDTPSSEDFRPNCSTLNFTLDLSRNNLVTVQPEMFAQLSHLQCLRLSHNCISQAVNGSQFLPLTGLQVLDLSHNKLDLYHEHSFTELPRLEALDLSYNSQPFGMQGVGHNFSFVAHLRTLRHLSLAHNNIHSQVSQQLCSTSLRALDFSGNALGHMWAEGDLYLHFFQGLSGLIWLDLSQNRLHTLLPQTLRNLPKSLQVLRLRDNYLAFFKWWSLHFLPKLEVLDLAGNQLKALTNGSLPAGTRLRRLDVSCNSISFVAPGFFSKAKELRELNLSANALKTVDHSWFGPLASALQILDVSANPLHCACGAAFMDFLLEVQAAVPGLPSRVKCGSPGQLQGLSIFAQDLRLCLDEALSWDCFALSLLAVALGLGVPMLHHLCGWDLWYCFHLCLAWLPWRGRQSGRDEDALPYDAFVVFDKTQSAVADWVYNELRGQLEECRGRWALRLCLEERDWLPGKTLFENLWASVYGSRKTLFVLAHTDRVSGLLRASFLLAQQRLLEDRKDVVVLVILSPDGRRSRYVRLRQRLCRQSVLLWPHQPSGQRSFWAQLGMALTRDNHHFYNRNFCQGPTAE

human TLR7, sequence (Q9NYK1 27-1049): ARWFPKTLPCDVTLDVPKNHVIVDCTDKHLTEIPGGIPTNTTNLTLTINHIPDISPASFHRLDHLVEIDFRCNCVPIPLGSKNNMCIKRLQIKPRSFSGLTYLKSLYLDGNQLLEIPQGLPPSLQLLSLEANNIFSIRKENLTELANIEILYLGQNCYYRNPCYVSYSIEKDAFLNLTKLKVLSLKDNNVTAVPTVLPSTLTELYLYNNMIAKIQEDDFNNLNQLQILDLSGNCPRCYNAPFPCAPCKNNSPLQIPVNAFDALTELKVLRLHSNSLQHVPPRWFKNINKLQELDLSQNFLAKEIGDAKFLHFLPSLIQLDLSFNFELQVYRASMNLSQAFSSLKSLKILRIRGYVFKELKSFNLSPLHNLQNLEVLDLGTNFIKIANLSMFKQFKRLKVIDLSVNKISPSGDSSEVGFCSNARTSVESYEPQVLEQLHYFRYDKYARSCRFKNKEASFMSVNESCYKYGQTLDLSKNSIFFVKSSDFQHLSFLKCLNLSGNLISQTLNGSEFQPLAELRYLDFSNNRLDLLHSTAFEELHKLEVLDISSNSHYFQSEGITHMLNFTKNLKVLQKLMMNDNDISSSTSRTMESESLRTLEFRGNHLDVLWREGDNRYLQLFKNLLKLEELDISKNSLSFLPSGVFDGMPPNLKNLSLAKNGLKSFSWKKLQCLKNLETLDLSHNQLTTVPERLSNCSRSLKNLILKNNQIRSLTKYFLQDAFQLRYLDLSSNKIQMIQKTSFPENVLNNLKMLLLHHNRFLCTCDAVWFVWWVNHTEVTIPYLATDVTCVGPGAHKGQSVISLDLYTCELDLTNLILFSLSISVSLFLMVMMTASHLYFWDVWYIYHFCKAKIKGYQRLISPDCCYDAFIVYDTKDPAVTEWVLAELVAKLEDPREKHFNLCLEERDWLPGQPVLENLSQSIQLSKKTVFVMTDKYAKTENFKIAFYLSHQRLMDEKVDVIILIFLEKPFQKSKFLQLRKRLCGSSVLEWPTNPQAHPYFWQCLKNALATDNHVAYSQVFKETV
human TLR8, sequence (Q9NR97 27-1041): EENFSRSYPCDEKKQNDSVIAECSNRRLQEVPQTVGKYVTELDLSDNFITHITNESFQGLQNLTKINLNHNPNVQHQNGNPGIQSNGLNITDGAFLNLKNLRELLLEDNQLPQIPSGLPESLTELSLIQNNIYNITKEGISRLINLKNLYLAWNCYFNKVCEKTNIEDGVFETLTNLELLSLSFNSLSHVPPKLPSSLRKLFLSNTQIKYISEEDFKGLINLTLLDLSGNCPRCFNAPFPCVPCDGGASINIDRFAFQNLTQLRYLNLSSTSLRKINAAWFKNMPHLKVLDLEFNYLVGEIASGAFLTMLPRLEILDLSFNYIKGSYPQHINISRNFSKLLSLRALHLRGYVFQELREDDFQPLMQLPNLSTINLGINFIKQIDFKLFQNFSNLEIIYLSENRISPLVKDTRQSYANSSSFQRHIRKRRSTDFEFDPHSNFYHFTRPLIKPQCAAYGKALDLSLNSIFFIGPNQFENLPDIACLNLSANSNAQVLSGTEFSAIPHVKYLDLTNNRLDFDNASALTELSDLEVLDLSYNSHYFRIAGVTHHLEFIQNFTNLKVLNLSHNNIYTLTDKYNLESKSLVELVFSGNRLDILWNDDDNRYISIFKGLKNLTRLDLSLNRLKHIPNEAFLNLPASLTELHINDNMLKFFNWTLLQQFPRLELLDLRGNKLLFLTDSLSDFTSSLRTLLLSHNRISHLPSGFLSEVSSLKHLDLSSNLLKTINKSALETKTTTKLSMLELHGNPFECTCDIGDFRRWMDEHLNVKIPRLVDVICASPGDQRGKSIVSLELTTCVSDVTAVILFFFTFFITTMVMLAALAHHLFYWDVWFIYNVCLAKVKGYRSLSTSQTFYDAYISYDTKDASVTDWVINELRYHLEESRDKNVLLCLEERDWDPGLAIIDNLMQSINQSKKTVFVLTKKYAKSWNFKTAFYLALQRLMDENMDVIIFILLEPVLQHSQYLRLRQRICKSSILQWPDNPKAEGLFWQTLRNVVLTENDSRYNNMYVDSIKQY

Structure (SMILES)	IC50 (human TLR8) [µM]	IC50 (human TLR7) [µM]	IC50 (human TLR9) [µM]
Cc1c(-c2[nH]c3ccc(C4CCC(N(CC#N)CC5(S(C)(=O)=O)CC5)CC4)nc3c2C(C)C)cn2ncnc2c1C (stereo not drawn) [Example 478]	0.015	0.013	24.5
Cc1c(-c2[nH]c3ccc(C4CCC(N(C)CC5(S(C)(=O)=O)CC5)CC4)nc3c2C(C)C)cn2ncnc2c1C (stereo not drawn) [Example 479]	0.01	0.0029	23.7
CCN(CC1(S(C)(=O)=O)CC1)C1CCC(c2ccc3[nH]c(-c4cn5ncnc5c(C)c4C)c(C(C)C)c3n2)CC1 (stereo not drawn) [Example 480]	0.014	0.002	11.7
Cc1c(-c2[nH]c3ccc(C4CCC(N(CCO)CC5(S(C)(=O)=O)CC5)CC4)nc3c2C(C)C)cn2ncnc2c1C (stereo not drawn) [Example 482]	0.238	0.096	> 50
Cc1c(-c2[nH]c3ccc(C4CCC(NC5(CO)COC5)CC4)nc3c2C(C)C)cn2ncnc2c1C (stereo not drawn) [Example 484]	0.011	0.0061	7.07
COCCN(C)C(=O)CNC1CCC(c2ccc3[nH]c(-c4cn5ncnc5c(C)c4C)c(C(C)C)c3n2)CC1 (stereo not drawn) [Example 488]	0.0084	0.011	5.36
Cc1c(-c2[nH]c3ccc(C4CCC(NCC(=O)NC(C)(C)C)CC4)nc3c2C(C)C)cn2ncnc2c1C (stereo not drawn) [Example 489]	0.02	0.02	6.67
Cc1c(-c2[nH]c3ccc(C4CCC5(CC4)CN(C(C)C)C5)nc3c2C(C)C)cn2ncnc2c1C [Example 493]	3.79	1.76	> 50
COCCN(C1CCC(c2ccc3[nH]c(-c4cn5ncnc5c(C)c4C)c(C(C)C)c3n2)CC1)C1(CO)COC1 (stereo not drawn) [Example 499]	0.833	0.607	> 50
COCCN(C1CCC(c2ccc3[nH]c(-c4cn5ncnc5c(C)c4C)c(C(C)C)c3n2)CC1)C1(CO)COC1 (stereo not drawn) [Example 500]	0.039	0.019	> 50
Cc1c(-c2[nH]c3ccc(C4CCC(N(C)CC(N)=O)CC4)nc3c2C(C)C)cn2ncnc2c1C (stereo not drawn) [Example 501]	0.016	0.0063	9.55
Cc1cc2[nH]c(-c3cn4ncnc4c(C)c3C)c(C(C)C)c2nc1C1CCC(NC2COC2)CC1 (stereo not drawn) [Example 503]	0.0092	0.0014	2.5
CCN(CC(=O)N(C)C)C1CCC(c2nc3c(C(C)C)c(-c4cn5ncnc5c(C)c4C)[nH]c3cc2F)CC1 (stereo not drawn) [Example 509]	0.03	0.017	9.11
CCN(CCS(C)(=O)=O)C1CCC(c2nc3c(C(C)C)c(-c4cn5ncnc5c(C)c4C)[nH]c3cc2F)CC1 (stereo not drawn) [Example 510]	0.028	0.0059	> 50
CC(C)c1c(-c2ccc(=O)n(C)c2)[nH]c2ccc(C3CCNCC3)nc12 [Example 513]	0.307	0.319	0.545
Cc1cc(-c2[nH]c3ccc(C4CCNCC4)nc3c2C(C)C)nn(C)c1=O [Example 514]	0.044	0.038	7.11
Cc1cc(-c2[nH]c3ccc(C4CCNCC4)nc3c2C(C)C)cn(C)c1=O [Example 515]	0.021	0.0079	0.223
Cc1cc(-c2[nH]c3ccc(C4CCNCC4)nc3c2C(C)C)cn2cnnc12 [Example 518]	0.032	0.0016	0.721

These reach a lower IC50 (human TLR8). Values come first.

IC50 (human TLR8) [µM]	IC50 (human TLR7) [µM]	IC50 (human TLR9) [µM]	Structure (SMILES)
0.0026	0.00081	9.75	Cc1c(-c2[nH]c3ccc(C4CCC(N(C)CC5(S(C)(=O)=O)CC5)CC4)nc3c2C(C)C)cn2ncnc2c1C (stereo not drawn) [Example 476]
0.006	0.0083	6.16	Cc1c(-c2[nH]c3ccc(C4CCC(NCC5(C)COC5)CC4)nc3c2C(C)C)cn2ncnc2c1C (stereo not drawn) [Example 477]
0.0039	0.00082	13	Cc1c(-c2[nH]c3ccc(C4CCC(N(CCO)CC5(S(C)(=O)=O)CC5)CC4)nc3c2C(C)C)cn2ncnc2c1C (stereo not drawn) [Example 481]
0.0012	0.00094	5.13	Cc1c(-c2[nH]c3ccc(C4CCC(NC5(CO)COC5)CC4)nc3c2C(C)C)cn2ncnc2c1C (stereo not drawn) [Example 483]
0.0022	0.0011	2.52	Cc1c(-c2[nH]c3ccc(C4CCC(NCC(=O)NC(C)(C)C)CC4)nc3c2C(C)C)cn2ncnc2c1C (stereo not drawn) [Example 485]
0.00049	0.00075	2.29	CNC(=O)C(C)(C)NC1CCC(c2ccc3[nH]c(-c4cn5ncnc5c(C)c4C)c(C(C)C)c3n2)CC1 (stereo not drawn) [Example 487]
0.008	0.00089	0.677	Cc1c(-c2[nH]c3ccc(C4CCC5(CC4)CNC5)nc3c2C(C)C)cn2ncnc2c1C [Example 491, 6-(3-isopropyl-5-(2-azaspiro[3.5]nonan-7-yl)-1H-pyrrolo[3,2-b]pyridin-2-yl)-7,8-dimethyl-[1,2,4]triazolo[1,5-a]pyridine]
0.0028	0.0052	14.1	Cc1c(-c2[nH]c3ccc(C4CCC(NC5(C(=O)N(C)C)CCCC5)CC4)nc3c2C(C)C)cn2ncnc2c1C (stereo not drawn) [Example 494]
0.0013	0.0033	3.6	Cc1c(-c2[nH]c3ccc(C4CCC(NC(C)(C)C(=O)N(C)C)CC4)nc3c2C(C)C)cn2ncnc2c1C (stereo not drawn) [Example 495]
0.0021	0.0075	2.62	Cc1c(-c2[nH]c3ccc(C4CCC(NC(C)(C)C(=O)N5CCOCC5)CC4)nc3c2C(C)C)cn2ncnc2c1C (stereo not drawn) [Example 496]
0.0051	0.00079	2.9	Cc1cc2[nH]c(-c3cn4ncnc4c(C)c3C)c(C(C)C)c2nc1C1CCC(NC2COC2)CC1 (stereo not drawn) [Example 502]
0.00064	0.00055	3.74	Cc1c(-c2[nH]c3cc(F)c(C4CCC(NC5CCOCC5)CC4)nc3c2C(C)C)cn2ncnc2c1C (stereo not drawn) [Example 504]
0.0049	0.0035	7.6	Cc1c(-c2[nH]c3cc(F)c(C4CCC(NC5CCOCC5)CC4)nc3c2C(C)C)cn2ncnc2c1C (stereo not drawn) [Example 505]
0.00042	0.00041	3.18	Cc1c(-c2[nH]c3cc(F)c(C4CCC(N)CC4)nc3c2C(C)C)cn2ncnc2c1C (stereo not drawn) [Example 506]
0.0024	0.0011	8.49	Cc1c(-c2[nH]c3cc(F)c(C4CCC(N)CC4)nc3c2C(C)C)cn2ncnc2c1C (stereo not drawn) [Example 507]
0.0033	0.0011	6.85	CCN(CC(=O)N(C)C)C1CCC(c2nc3c(C(C)C)c(-c4cn5ncnc5c(C)c4C)[nH]c3cc2F)CC1 (stereo not drawn) [Example 508]
0.0048	0.0058	> 50	CCN(CCS(C)(=O)=O)C1CCC(c2nc3c(C(C)C)c(-c4cn5ncnc5c(C)c4C)[nH]c3cc2F)CC1 (stereo not drawn) [Example 511]
0.0056	0.0011	0.304	Cc1cc(-c2[nH]c3ccc(C4CCNCC4)nc3c2C(C)C)cc(C)n1 [Example 512]
0.0019	0.00022	0.155	Cc1cc(-c2[nH]c3ccc(C4CCNCC4)nc3c2C(C)C)cn2ncnc12 [Example 516]
0.006	0.0011	0.15	Cc1cc(-c2[nH]c3ccc(C4CCNCC4)nc3c2C(C)C)cn2nnnc12 [Example 517]
